{
  "source": "patent US11629201B2",
  "about": "“PSMA-binding agents and uses thereof” (ITM Isotope Technologies Munich SE, priority 2017, dated 2023)",
  "key": {"[1]": {"assay": "Stability of radioligands over time by RP-HPLC", "format": "physicochemical", "experimental": "Quality control of ^64Cu-labeled PSMA ligands (250 MBq in 120 μL; 50 MBq/nmol) was determined immediately after preparation (t=0 h) using RP-HPLC. The reaction mixtures were diluted in saline to an activity concentration of 250 MBq/500 μL and incubated at room temperature. The integrity of the compounds was investigated over one day (t=1 h, 4 h and 24 h, respectively). The amount of intact radioligand was quantified by integration of the product peak of the HPLC chromatograms in relation to the sum of all radioactive peaks of degradation products of unknown structure and traces of released ^64Cu which were set to 100%.\nThe stability of the radioligands was determined over time using RP-HPLC. […] The radiolabeling efficiency of the ligands was determined immediately after preparation (t=0 h) and the integrity of the compounds was investigated after incubation for various periods (t=1 h, 4 h and 24 h, respectively) at room temperature. The amount of intact compound was quantified by integration of the product peak of the HPLC chromatograms in relation to the sum of all radioactive peaks of degradation products of unknown structure and traces of free ^177Lu, which were set to 100%."}, "[2]": {"test_system": "PSMA-positive PC-3 PIP cells", "assay": "Cell uptake and internalization in PSMA-positive PC-3 PIP cells", "format": "cell-based", "conditions": "4 h incubation, PC-3 PIP cells"}, "[3]": {"test_system": "PSMA-negative PC-3 flu cells", "assay": "Cell uptake in PSMA-negative PC-3 flu cells", "format": "cell-based", "experimental": "Cells were grown in RPMI cell culture medium supplemented with 10% fetal calf serum, L-glutamine, antibiotics and puromycin (2 μg/mL) at 37° C. and 5% CO2 (standard conditions). Routine cell culture was performed twice a week using PBS/EDTA (2 mM) for washing the cells and trypsin for detachment of the cells. The cells were seeded in 12-well plates (˜3×10^5 cells in 2 mL RPMI medium/well) allowing adhesion and growth overnight at standard conditions. The supernatant was removed and the cells washed with PBS pH 7.4 prior to the addition of RPMI medium without supplements (975 μL/well). […] After incubation, the cells were washed three times with ice-cold PBS and the total uptake of the radioligands was determined (PSMA-bound fraction on the surface and internalized fraction). The fraction of internalized radioligand was evaluated in cells washed with ice-cold PBS, followed by a 10 min incubation with stripping buffer (0.05 M glycine stripping buffer in 100 mM NaCl, pH 2.8) and an additional washing step with ice-cold PBS. […] After homogenization of the cell suspensions, the protein concentration was determined for each sample using a Micro BCA Protein Assay kit (Pierce, Therma Scientific). The results were expressed as percentage of total added radioactivity per […]. […]"}, "[4]": {"assay": "n-Octanol/PBS distribution coefficient (log D)", "format": "physicochemical", "conditions": "radiolabeled ligand, 50 MBq/nmol, PBS pH 7.4", "experimental": "The radioligand (0.5 MBq; 10 pmol, 25 μL) was then added to a reagent tube containing 1475 μL of PBS pH 7.4 and 1500 μL of n-octanol. The vials were vortexed vigorously followed by a centrifugation step for phase separation.\nDetermination of n-Octanol/PBS Distribution Coefficients (Log D Values). The distribution coefficients (log D values) of the ^64Cu-labeled radioligands (50 MBq/nmol) were determined by a shake-flask method using liquid-liquid extraction followed by phase separation as previously reported. Three experiments were performed with five replicates for each radioligand. Statistical significance of the data (p<0.05) was evaluated using an unpaired t-test (GraphPad Prism software, version 7).\nDetermination of n-Octanol/PBS Distribution Coefficients (Log D Values). […] A sample of the radioligands was mixed with phosphate-buffered saline (PBS) and n-octanol followed by vigorous vortexing. […] Three experiments were performed with five replicates for each compound."}, "[5]": {"test_system": "mouse plasma proteins", "assay": "Ultrafiltration assay, binding to mouse plasma proteins", "format": "in vitro ADME", "procedure": "Filter Assay. […] In addition, the radioligands were diluted in PBS (buffer solution without proteins) as a control experiment. Aliquots of the solutions were loaded onto an ultrafiltration device and centrifuged. The filtered activity was measured with a γ-counter and used for calculating the plasma protein-bound activity (retained on the filter membrane) as the percentage of total added activity. […] Statistical analysis (one-way ANOVA with Bonferroni's multiple comparison post-test) was performed using GraphPad Prism software, version 7. A p-value of <0.05 was considered statistically significant."}, "[6]": {"test_system": "PC-3 PIP tumor", "assay": "Therapy study in PC-3 PIP tumor-bearing mice", "format": "in vivo", "conditions": "for TGDI2 / TGDI5: control = 1", "description": "Mice of Groups B and D received 2 MBq of the radioligand (1 nmol/mouse), whereas mice of Groups C and E received 5 MBq of the radioligand (1 nmol/mouse). The mice were monitored by measuring body weights and the tumor size every other day over 12 weeks. Mice were euthanized when pre-defined endpoint criteria were reached, or when the study was terminated at Day 84. The relative body weight (RBW) was defined as [BWx/BW0], where BWx is the body weight in gram at a given day x and BW0 the body weight in gram at day 0. The tumor dimension was determined by measuring the longest tumor axis (L) and its perpendicular axis (W) with a digital caliper. The tumor volume (V) was calculated according to the equation [V=0.5*(L*W2)]. The relative tumor volume (RTV) was defined as [TVx/TV0], where TVx is the tumor volume in mm3 at a given day x and TV0 the tumor volume in mm3 at Day 0.\nThe efficacy of the radionuclide therapy was expressed as the tumor growth delay (TGDx), which was calculated as the time required for the tumor volume to increase x-fold over the initial volume at the Day 0. The tumor growth delay index [TGDIx=TGDx(T)/TGDx(C)] was calculated as the TGDx ratio of treated mice (T) over control mice (C) for a 2-fold (x=2, TGD2) and 5-fold (x=5, TGD5) increase of the initial tumor volume. As a measure to identify undesired side effects, body weights were compared at the day when the first control mouse had to be euthanized. After euthanasia, kidneys, liver and the brain were collected and weighed. The organ ratios (kidney-to-brain and liver-to-brain) were calculated using the organ masses obtained at the day of euthanasia.\nThe data was analyzed for significance as indicated in the result part using a one-way ANOVA with Tukey's multiple comparison post-test using GraphPad Prism software (version 7). A value of p<0.05 was considered statistically significant. Survival analysis was performed with Kaplan-Meier curves and a log-rank tests (Mantel Cox)."}, "[7]": {"test_system": "PC-3 PIP/flu tumor-bearing mice", "assay": "Biodistribution studies in PC-3 PIP/flu tumor-bearing mice", "conditions": "for Tumor-to-blood / Tumor-to-kidney / Tumor-to-liver: PC-3 PIP tumor"}, "[8]": {"conditions": "non-decay-corrected biodistribution data up to 192 h p.i."}},
  "note": "“And” between values parts separate entries of the source, which are not always exact repeats. Equal entries are not always repeated.",
  "data": [
    {"smiles": "O=C([O-])CN1CCN(CC(=O)[O-])CCN(CC(=O)NCC2CCC(C(=O)N[C@@H](Cc3ccc4ccccc4c3)C(=O)NCCCC[C@H](NC(=O)N[C@@H](CCC(=O)O)C(=O)O)C(=O)O)CC2)CCN(CC(=O)[O-])CC1.[177Lu+3]", "note": "(some centres unmarked) [^177Lu-PSMA-617, reference compound]", "values": [
      {"measurement": "intact compound", "setting": "[1]; after 4 h, absence of L-ascorbic acid", "result": "~86", "unit": "%"},
      {"measurement": "intact compound", "setting": "[1]; after 24 h, absence of L-ascorbic acid", "result": "< 2", "unit": "%"},
      {"measurement": "intact compound", "setting": "[1]; after 24 h, with L-ascorbic acid", "result": "> 98", "unit": "%"},
      {"measurement": "cell uptake", "setting": "[2]", "result": 58, "unit": "%"},
      {"measurement": "internalized fraction", "setting": "[2]", "result": 12, "unit": "%"},
      {"measurement": "uptake in PC-3 flu cells", "setting": "[3]", "result": "below 0.5%"},
      {"measurement": "n-octanol/PBS distribution coefficient (log D value)", "setting": "[4]", "result": "−4.4±0.15"},
      {"measurement": "plasma protein-bound fraction", "setting": "[5]", "result": "9.3±1.1", "unit": "%"},
      {"measurement": "first mouse of group euthanized", "setting": "[6]; 2 MBq/mouse (Groups B, D)", "result": 12, "unit": "days"},
      {"measurement": "median survival", "setting": "[6]; 2 MBq/mouse (Groups B, D)", "result": 19, "unit": "days"},
      {"measurement": "TGDI2", "setting": "[6]; 2 MBq/mouse (Groups B, D)", "result": "0.8 and 0.8 ± 0.3"},
      {"measurement": "TGDI5", "setting": "[6]; 2 MBq/mouse (Groups B, D)", "result": "1.4 and 1.4 ± 0.1"},
      {"measurement": "first mouse of group euthanized", "setting": "[6]; 5 MBq/mouse (Groups C, E)", "result": 26, "unit": "days"},
      {"measurement": "median survival", "setting": "[6]; 5 MBq/mouse (Groups C, E)", "result": 32, "unit": "days"},
      {"measurement": "TGDI2", "setting": "[6]; 5 MBq/mouse (Groups C, E)", "result": "2.1 ± 0.3"},
      {"measurement": "TGDI5", "setting": "[6]; 5 MBq/mouse (Groups C, E)", "result": "2.5 ± 0.3"},
      {"measurement": "PC-3 PIP Tumor", "setting": "[7]; 4 h p.i.", "result": "~56", "unit": "% IA/g"},
      {"measurement": "Kidneys", "setting": "[7]; 24 h p.i.", "result": "< 1", "unit": "% IA/g"},
      {"measurement": "Tumor-to-blood", "setting": "[7]; 24 h p.i.", "result": "2730 ± 195"},
      {"measurement": "Tumor-to-kidney", "setting": "[7]; 24 h p.i.", "result": "49 ± 3.7"},
      {"measurement": "Tumor-to-liver", "setting": "[7]; 24 h p.i.", "result": "528 ± 51"},
      {"measurement": "Tumor-to-blood", "setting": "[7]; 48 h p.i.", "result": "3776 ± 585"},
      {"measurement": "Tumor-to-kidney", "setting": "[7]; 48 h p.i.", "result": "81 ± 11"},
      {"measurement": "Tumor-to-liver", "setting": "[7]; 48 h p.i.", "result": "710 ± 97"},
      {"measurement": "PC-3 PIP Tumor", "setting": "[7]; 192 h p.i.", "result": "~20", "unit": "% IA/g"},
      {"measurement": "AUC PC-3 PIP tumor", "setting": "[7]; [8]", "result": "3691 ± 156", "unit": "% IA/g · h"},
      {"measurement": "AUC blood", "setting": "[7]; [8]", "result": "52 ± 1.5", "unit": "% IA/g · h"},
      {"measurement": "AUC kidneys", "setting": "[7]; [8]", "result": "99 ± 11", "unit": "% IA/g · h"},
      {"measurement": "AUC liver", "setting": "[7]; [8]", "result": "6.2 ± 1.6", "unit": "% IA/g · h"},
      {"measurement": "Ratio of AUCs AUCTu-to-AUCBl", "setting": "[7]; tumor to blood", "result": 71},
      {"measurement": "Ratio of AUCs AUC-Tu-to-AUC-Ki", "setting": "[7]; tumor to kidneys", "result": 37},
      {"measurement": "Ratio of AUCs AUCTu-to-AUCLi", "setting": "[7]; tumor to liver", "result": 592}
    ]}
  ]
}
